Results taken from patent US20120022121A1, “INDOLES, DERIVATIVES AND ANALOGS THEREOF AND USES THEREFOR” (priority 2007, published 2012).

Columns and labels:
CV-1 = assay: Cell viability SRB assay, 96 h; format: cell-based; settings: Cercopithecidae, CV-1 fibroblast cell line
Procedure: (§1) Cells were plated in 96-well plates at a density of 800-5,000 cells/well, depending on the cell line, in their required growth media containing 10% fetal bovine serum. Preliminary studies were performed with each cell line using a variety of cell densities and incubation times to determine appropriate seeding densities. The compound of interest was dissolved in DMSO, diluted in cell culture medium (final DMSO concentration was less than 0.5% v/v), and added to quadruplicate wells at final concentrations ranging from 0 to 100 μM. Control wells to which only drug-free vehicle was added were included as negative controls.
(§2) Cells were incubated for 96 hour at 37° C. in a humidified atmosphere containing 5% carbon dioxide.

DU-145 = assay: Cell viability SRB assay, 96 h; format: cell-based; settings: Homo sapiens, DU-145, 96 h
Procedure: (§3) Cell viability (LNCaP, PC-3 prostate, DU145, PPC-1, and TSU-Pr1 prostate cancer cell lines, HT-29 colon cancer cell line, and MCF-7 breast cancer cell line) was quantitated using the sulforhodamine B (SRB) assay after 96 h coincubation with different concentrations of compound in 96-well plates. Cell viability of leukemia cells (K562 and doxorubicin-resistant K562/Dox) was quantitated by MTT assay after 96 h coincubation with different concentrations of compound in 96-well plates. Drug-induced apoptosis was determined by anti-histone ELISA assay and DNA laddering. Cell cycle progression was assessed by propidium iodide staining and fluorescence-activated cell sorting (FACS) analysis. In vitro tubulin polymerization assay was determined by CytoDYNAMIX ScreenTM3 (CDS-03) kits according to the manufacturer's instructions. Anti-apoptosis protein (Bcl-2 and Bcl-xl) and pro-apoptosis protein (Bax) were examined in LNCaP and PC-3 after 24 h incubation with different concentrations of compound 13 by Western blot assay. In vivo PC-3 xenograft studies were conducted by i.v. dosing of 50 mg/kg, 100 mg/kg and 150 mg/kg for 2 weeks.
as §1, §2
(§4) Cells were stained with SRB solution. […] WinNonlin was provided by a Pharsight Academic License to The Ohio State University.

LNCaP = assay: Cell viability SRB assay, 96 h; format: cell-based; settings: Homo sapiens
Procedure: as §3, §1, §2, §4

PC-3 = assay: Cell viability SRB assay, 96 h; format: cell-based; settings: Homo sapiens, PC-3, 96 h
Procedure: as §3, §1, §2, §4

PPC-1 = assay: Cell viability SRB assay, 96 h; format: cell-based; settings: Homo sapiens, PPC-1, 96 h
Procedure: as §3, §1, §2, §4

TSU = assay: Cell viability SRB assay, 96 h; format: cell-based; settings: Homo sapiens, TSU (TSU-Pr1)
Procedure: as §3, §1, §2, §4

HT-29 = assay: Cell viability SRB assay, 96 h; format: cell-based; settings: Homo sapiens, HT-29, 96 h
Procedure: as §3, §1, §2, §4

MCF-7 = assay: Cell viability SRB assay, 96 h; format: cell-based; settings: Homo sapiens, MCF7; MCF-7, 96 h
Procedure: as §3, §1, §2, §4

Row | IC50 (DU-145) | IC50 (LNCaP) | IC50 (PC-3) | melting point | IC50 (HT-29) | IC50 (MCF-7) | Structure (SMILES) | IC50 (CV-1) | IC50 (PPC-1) | IC50 (TSU)
1 | > 100 µM | > 100 µM | > 100 µM | 189 to 190 °C | – | – | O=C(c1cccc(-c2cc3ccccc3n2S(=O)(=O)c2ccccc2)c1)c1cc2ccccc2n1S(=O)(=O)c1ccccc1 [Compound 12, (1-Benzenesulfonyl-1H-indol-2-yl)-[3-(1-benzenesulfonyl-1H-indol-2-yl)phenyl]methanone] | > 100 µM | > 100 µM | > 100 µM
2 | 0.129 µM | 0.047 µM | 0.072 ± 0.013 µM | – | 0.1 µM | 0.043 µM | COc1cccc(C(=O)c2cccc(-c3cc4ccccc4[nH]3)c2)c1 [Compound 81, [3-(1H-Indol-2-yl)-phenyl]-(3-methoxy-phenyl)-methanone] | – | 0.043 µM | 0.042 µM
3 | 0.131 µM | 0.051 µM | 0.069 ± 0.012 µM | – | 0.119 µM | 0.043 µM | COc1ccc(C(=O)c2cccc(-c3cc4ccccc4[nH]3)c2)cc1OC [Compound 83, (3,4-Dimethoxy-phenyl)-[3-(1H-indol-2-yl)-phenyl]-methanone] | – | 0.04 µM | 0.044 µM

Further lines, the compound ahead of its results:

Row | Structure (SMILES) | IC50 (DU-145) | IC50 (LNCaP) | IC50 (PC-3) | melting point | IC50 (HT-29) | IC50 (MCF-7) | IC50 (CV-1) | IC50 (PPC-1) | IC50 (TSU)
4 | O=S(=O)(c1ccccc1)n1c(Br)cc2ccccc21 [Compound 3, 2-bromo-1-(benzenesulfonyl)indole] | 63.9 ± 1.9 µM | 29.6 ± 2.2 µM | 69.3 ± 2.1 µM | – | – | – | > 100 µM | 52.1 ± 1.1 µM | 44.9 ± 2 µM
5 | O=Cc1cccc(-c2cc3ccccc3n2S(=O)(=O)c2ccccc2)c1 [Compound 5] | 19.7 ± 1.3 µM | 17.7 ± 1.2 µM | 23.2 ± 1.4 µM | 126 to 138 °C | – | – | > 100 µM | 13.9 ± 0.2 µM | 11.5 ± 0.1 µM
6 | O=S(=O)(c1ccccc1)n1c(B(O)O)cc2ccccc21 [Compound 7, 1-(phenylsulfonyl)-1H-indol-2-yl-boronic acid, reference compound] | 72 ± 3.4 µM | 23.1 ± 4 µM | 73.9 ± 7.1 µM | – | – | – | > 100 µM | 80.8 ± 1.2 µM | 48.2 ± 3.4 µM
7 | O=S(=O)(c1ccccc1)n1c(-c2cccc(C(O)c3cc4ccccc4n3S(=O)(=O)c3ccccc3)c2)cc2ccccc21 (centres unmarked) [Compound 8, (1-benzenesulfonyl-1H-indol-2-yl)-[3-(1-benzenesulfonyl-1H-indol-2-yl)phenyl]methanol] | > 100 µM | > 100 µM | > 100 µM | 81 to 83 °C | – | – | > 100 µM | 30 µM | > 100 µM
8 | c1cc(Cc2cc3ccccc3[nH]2)cc(-c2cc3ccccc3[nH]2)c1 [Compound 10, (1H-Indol-2-yl)-[3-(1H-indol-2-yl)phenyl]methane] | 18.4 µM | > 50 µM | > 50 µM | 193 to 194 °C | 0.72 µM | – | > 50 µM | > 50 µM | 20 to 50 µM
9 | COc1cc(OC)cc(C(=O)c2cccc(-c3cc4ccccc4[nH]3)c2)c1 [Compound 82, (3,5-Dimethoxy-phenyl)-[3-(1H-indol-2-yl)-phenyl]-methanone] | 0.134 µM | 0.082 µM | 0.075 ± 0.016 µM | – | 0.092 µM | 0.054 µM | – | 0.069 µM | 0.065 µM
